Test results from US20040265323A1, “Compositions comprising pathogen elicited epithelial chemoattractant (eicosanoid hepoxilin A3), inhibitors thereof and methods of use thereof” (priority 2003, published 2004).
Entries after “also recorded” stand apart in the source; their conditions may differ.

How the values were obtained:
IL-8 production = assay: IL-8 produced in S. typhimurium-infected intestinal xenografts; assay type: in vivo, human; conditions: S. typhimurium-infected xenografts in the presence of baicalein
Procedure: (§1) Further, the effect of baicalein on S. typhimurium pathology in human intestinal xenografts was determined (Savidge et al., 1995) (FIG. 7). The human fetal intestinal xenograft model used in the present study has been previously described in detail (Savidge et al., 1995). Briefly, human fetal small intestine (n=3, gestational age 10-14weeks) was transplanted subcutaneously into C.B-17 severe-combined immunodeficient (SCID) mice. Xenografts were allowed to develop for a period between 10-20 weeks before use at which time the epithelium and underlying mucosa is fully differentiated (Savidge et al., 1995). Xenografts were infected with approximately 5×10^7 wild type S. typhimurium SL1344 in sterile HBSS(+) buffer in a 100 μl volume injected intralumenally by subcutaneous injection. […]
(§2) It was further confirmed that treatment of the intestinal xenografts with baicalein inhibited the 12-LO pathway by measuring the amount of 12-S-HETE, a major 12-LO metabolite, released into the lumenal fluid. […] Finally, it was determined that there was no statistical difference in the amount IL-8 produced in the S. typhimurium-infected intestinal xenografts in the absence compared to the presence of baicalein treatment (200±53 pg/mg compared to 225±30 pg/mg, respectively, verses 52±11 pg/mg for uninfected control). […]

[1] = test system: P. aeruginosa-induced PMN transepithelial migration, A549 cells; assay: P. aeruginosa-induced PMN transepithelial migration across A549 cell monolayers; assay type: cell-based, human; conditions: A549 monolayers, FIG. 5C
Description: It was further determined whether similar hepoxilin A3 recruitment of PMN by apically attached pathogens might occur at other mucosal surfaces. Pseudomonas aeruginosa is the most prominent bacterial spp. present during chronic infection in cystic fibrosis and chronic obstructive pulmonary disease patients and is accompanied by severe inflammation, including the emigration of PMN to the airway lumen (Pizurki et al., 2000; Jahn et al., 2000; Weiss, S. 1989). As a model for the airway epithelium the A549 cell line was used. This cell line is capable of forming a polarized barrier, and is widely employed as a model for the airway epithelial surface (Smart and Casale, 1994). […] Finally, the secretion of hepoxlin A3 in vitro was quantified using this A549 model system. For these experiments, A549 lung epithelial cells (ATTC) were grown in F12K media (Invitrogen) with 10% FBS, and maintained in culture similar to the T84 cell line. The wild type P. aeruginosa (PAO1) was used for infection of A549 after overnight aerobic growth (Luria broth) at 37° C.

IL-8 secretion = IL-8 secretion by S. typhimurium infected T84 cell monolayers; assay type: cell-based, human; conditions: S. typhimurium infected T84, baicalein 1 μM
12-LO pathway = assay: 12-S-HETE ELISA of lumenal fluid of S. typhimurium-infected xenografts; assay type: in vivo, human; conditions: S. typhimurium-infected xenografts with baicalein; average of two lumens
Procedure: as §1, §2

[2] = test system: S. typhimurium-induced PMN transepithelial migration, T84 cells; assay: Inhibition of S. typhimurium-induced PMN transepithelial migration across T84 monolayers; assay type: cell-based, human; conditions: T84 pre-treated: baicalein 48 hours, caffeic acid 24 hours
Description: It was further examined if hepoxilin A3 acts in a gradient fashion to drive PMN migration from the basolateral to the apical epithelial surface. For these experiments, the physiologically directed (basolateral-to-apical) PMN transepithelial migration assay using cell culture inserts of inverted T84 monolayers has been used (McCormick et al., 1993; Parkos et al., 1992). Human PMN were isolated from normal volunteers, as described elsewhere (Parkos et al., 1992; Henson and Oades, 1975). […] PMN which completely traversed the monolayer were represented as the number of PMN (CE/ml in a total volume of 1 ml). Values were expressed as the mean and SD of an individual experiment done in triplicate repeated at least 3 times.
Hepoxilin A3 is formed via the 12-lipoxygenase (LO) metabolism pathway of arachidonic acid. Therefore, the involvement of the 12-LO pathway in the ability of the enteric pathogen, S. typhimurium, to induce PMN transepithelial migration and elicit PEEC secretion was tested. […] For 12-LO inhibition, HBSS(+)-washed T84 cell monolayers were incubated in the presence baicalein [stock concentration at 1 mM in DMSO] for 48 hours at 37° C. Subsequently, S. typhimurium SL1344 was added to the apical surface of the T84 monolayers and after an incubation of 1 hour at 37° C., the cells were washed free of non-adherent bacteria and then processed for the PMN transmigration assay. […] For 5-LO inhibition, the T84 cells were washed with HBSS(+) and then were incubated for 24 hours in the presence of caffeic acid (stock concentration at 22 mM in DMSO). Both inhibitors were purchased form Biomol, Plymouth Meeting, Pa.
In each instance, the T84 cell monolayers were incubated for […] in the presence of the inhibitor prior to the addition of S. typhimurium.

In the case of `O=c1cc(-c2ccccc2)oc2cc(O)c(O)c(O)c12` [baicalein], the IL-8 produced (IL-8 production) is reported as 225 ± 30 pg/mg, the “P. aeruginosa-induced PMN transepithelial migration with 12-LO inhibitor” value [1] is reported as “inhibited” and the IL-8 secretion (IL-8 secretion) is reported as 577 ± 35 pg/mL. The “12-S-HETE in lumenal fluid” value (12-LO pathway) was 21.5 ng/mL and the “S. typhimurium-induced PMN transepithelial migration with lipoxygenase inhibitor” value [2] was “attenuated S. typhimurium-induced PMN transepithelial migration in a concentration-dependent fashion; also recorded: dose dependent decrease”.
